Counter-ions that a name gives are not always drawn.
What follows are molecules tested against T1, DPPIV obtained from swine kidney (Sus scrofa, UniProt P22411) (assay: Assay for the DPPIV-inhibiting activity). Conditions: DPPIV 10 mU/mL; Gly-Pro-p-nitroanilide 0.33 mM; absorbance 405 nm; read-out: IC50.
T1 construct: DPPIV obtained from swine kidney; from tissue; host or cells: swine kidney
Format: biochemical
Protocol: DPPIV obtained from swine kidney was dissolved in a reaction buffer (50 mM Tris-HCl (pH 7.4)/0.1% BSA) at a fmal concentration of 10 mU/mL. A 110 μL aliquot of this enzyme solution was added to the reaction system, and then 15 μL of an agent was added. The reaction solution was incubated at room temperature for 20 minutes. 25 μL of a solution containing 2 mM Gly-Pro-p-nitroanilide was added to the reaction solution (at the final concentration of 0.33 mM) to start the enzyme reaction. The reaction time was 20 minutes. 25 μL of 1N phosphate solution was added to stop the reaction. […] The degree of inhibition to the enzyme reaction was determined, and IC50 was computed based on the absorbance.

T1 sequence (P22411 whole entry): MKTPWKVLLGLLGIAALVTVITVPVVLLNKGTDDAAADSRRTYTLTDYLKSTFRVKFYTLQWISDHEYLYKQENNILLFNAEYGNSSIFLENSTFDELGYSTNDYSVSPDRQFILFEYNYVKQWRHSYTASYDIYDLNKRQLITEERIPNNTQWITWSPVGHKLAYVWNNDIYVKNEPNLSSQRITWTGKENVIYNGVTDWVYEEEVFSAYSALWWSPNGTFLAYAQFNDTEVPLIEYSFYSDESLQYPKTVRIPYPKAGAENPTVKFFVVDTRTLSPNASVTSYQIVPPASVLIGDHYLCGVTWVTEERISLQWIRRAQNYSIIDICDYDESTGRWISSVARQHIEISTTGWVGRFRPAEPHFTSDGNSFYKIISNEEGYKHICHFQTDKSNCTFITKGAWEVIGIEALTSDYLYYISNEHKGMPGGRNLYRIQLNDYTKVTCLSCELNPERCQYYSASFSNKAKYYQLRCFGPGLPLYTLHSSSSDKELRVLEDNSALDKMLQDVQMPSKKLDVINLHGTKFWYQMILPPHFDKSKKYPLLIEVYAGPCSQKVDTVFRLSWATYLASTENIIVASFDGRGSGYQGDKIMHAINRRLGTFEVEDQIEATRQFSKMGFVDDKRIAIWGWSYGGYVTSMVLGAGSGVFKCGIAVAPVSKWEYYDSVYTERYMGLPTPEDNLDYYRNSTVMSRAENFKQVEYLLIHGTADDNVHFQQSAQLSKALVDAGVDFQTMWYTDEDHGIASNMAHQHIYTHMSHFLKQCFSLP

| IC50 [nM] | Structure (SMILES) |
| --- | --- |
| 211 | CC#CCn1c(N2CCNCC2)nc2nc(OC(C(=O)OC)c3ccccc3)n(C)c(=O)c21 (stereo not shown) [Example 4, trifluoroacetate] |
| 354 | CC#CCn1c(N2CCNCC2)nc2c1c(=O)n(C)c(=O)n2C(C(=O)OC)c1ccccc1 (stereo not shown) [Example 402, Methyl[7-(2-butynyl)-1-methyl-2,6-dioxo-8-(piperazin-1-yl)-1,2,6,7-tetrahydropurin-3-yl]phenylacetate trifluoroacetate] |
| 64.9 | CC#CCn1c(N2CCNCC2)nc2c1c(=O)n(C)c(=O)n2C1CCNC1=O (stereo not shown) [Example 410, 7-(2-Butynyl)-1-methyl-3-(2-oxopyrrolidin-3-yl)-8-(piperazin-1-yl)-3,7-dihydropurine-2,6-dione hydrochloride] |
| 272 | CC#CCn1c(N2CCNCC2)nc2nc(OC3(C(=O)OCC)CC3)n(C)c(=O)c21 [Example 16] |
| 276 | CC#CCn1c(N2CCNCC2)nc2c1c(=O)n(C)c(=O)n2CC(=O)c1ccccc1 [Example 404, 7-(2-Butynyl)-3-(2-oxo-2-phenethyl)-1-methyl-8-(piperazin-1-yl)-3,7-dihydropurine-2,6-dione trifluoroacetate] |
| 1.44 | CC#CCn1c(N2CCNCC2)nc2nc(Oc3ccccc3C(N)=O)n(Cc3ccc(C#N)cc3)c(=O)c21 [Example 235, 2-[7-(2-Butynyl)-1-(4-cyanobenzyl-6-oxo-8-(piperazin-1-yl)-6,7-dihydro-1H-purin-2-yloxy]benzamide trifluoroacetate] |
| 222 | CC#CCn1c(N2CCNCC2)nc2c1c(=O)n(C)c(=O)n2CC(=O)C(C)(C)C [Example 409, 7-(2-Butynyl)-3-(3,3-dimethyl-2-oxobutyl)-1-methyl-8-(piperazin-1-yl)-3,7-dihydropurine-2,6-dione trifluoroacetate] |
| 185 | CC#CCn1c(N2CCNCC2)nc2cnn(C)c(=O)c21 [Example 115, 3-(2-Butynyl)-5-methyl-2-(piperazin-1-yl)-3,5-dihydroimidazo[4,5-d]pyridazin-4-one trifluoroacetate] |
| 359 | CC#CCn1c(N2CCNCC2)nc2c1c(=O)n(C)c(=O)n2C(C)C(=O)OCC (stereo not shown) [Example 405, Ethyl 2-[7-(2-butynyl)-1-methyl-2,6-dioxo-8-(piperazin-1-yl)-1,2,6,7-tetrahydropurin-3-yl]propionate trifluoroacetate] |
| 147 | CC#CCn1c(N2CCNCC2)nc2c1c(=O)n(CC(=O)OC)c(=O)n2C [Example 355, Methyl[7-(2-butynyl)-3-methyl-2,6-dioxo-8-(piperazin-1-yl)-2,3,6,7-tetrahydropurin-1-yl]acetate trifluoroacetate] |
| 183 | CC#CCn1c(N2CCNCC2)nc2c1c(=O)n(C)c(=O)n2CC1CCCO1 (stereo not shown) [Example 400, 7-(2-Butynyl)-3-(2-tetrahydrofuranyl)methyl-1-methyl-8-(piperazin-1-yl)-3,7-dihydropurine-2,6-dione trifluoroacetate] |
| 183 | CC#CCn1c(N2CCNCC2)nc2nc(OCC)n(C)c(=O)c21 [Example 12, 7-(2-Butynyl)-2-ethoxy-1-methyl-8-(piperazin-1-yl)-1,7-dihydropurin-6-one] |
| 7.32 | CC#CCn1c(N2CCNCC2)nc2ccn(CC(=O)c3ccccc3)c(=O)c21 [Example 341, 3-(2-Butynyl)-5-(2-oxo-2-phenylethyl)-2-(piperazin-1-yl)-3,5-dihydroimidazo[4,5-c]pyridin-4-one trifluoroacetate] |
| 340 | CC#CCn1c(N2CCNCC2)nc2c1c(=O)n(C)c(=O)n2C(C)C [Example 408, 7-(2-Butynyl)-3-isopropyl-1-methyl-8-(piperazin-1-yl)-3,7-dihydropurine-2,6-dione trifluoroacetate] |
| 275 | CC#CCn1c(N2CCNCC2)nc2c1c(=O)n(C)c(=O)n2CCOCC [Example 407, 7-(2-Butynyl)-3-(2-ethoxyethyl)-1-methyl-8-(piperazin-1-yl)-3,7-dihydropurine-2,6-dione trifluoroacetate] |
| 237 | CC#CCn1c(N2CCNCC2)nc2c1c(=O)n(C)c(=O)n2CC(=O)OC [Example 398, Methyl[7-(2-butynyl)-1-methyl-2,6-dioxo-8-(piperazin-1-yl)-1,2,6,7-tetrahydropurin-3-yl]acetate trifluoroacetate] |

| Structure (SMILES) | IC50 [nM] |
| --- | --- |
| CC#CCn1c(N2CCNCC2)nc2c1c(=O)n(CC(=O)c1ccccc1)c(=O)n2CC(=O)OC [Example 415, Methyl[7-(2-butynyl)-2,6-dioxo-1-(2-oxo-2-phenylethyl)-8-(pipierazin-1-yl)-1,2,6,7-tetrahydropurin-3-yl]acetate trifluoroacetate] | 1.81 |
| CC#CCn1c(N2CCNCC2)nc2nc(SCC(=O)O)n(C)c(=O)c21 [Example 79, [7-(2-Butynyl)-1-methyl-6-oxo-8-(piperazin-1-yl)-6,7-dihydro-1H-purin-2-ylsulfanyl]acetic acid trifluoroacetate] | 35.7 |
| CC#CCn1c(N2CCNCC2)nc2c1c(=O)n(CC(=O)c1ccccc1)c(=O)n2C [Example 361, 7-(2-Butynyl)-3-methyl-1-[(2-oxo-2-phenyl)ethyl]-8-(piperazin-1-yl)-3,7-dihydropurine-2,6-dione trifluoroacetate] | 0.654 |
| CC#CCn1c(N2CCNCC2)nc2nc(SCCC)n(C)c(=O)c21 [Example 129, 7-(2-Butynyl)-1-methyl-8-(piperazin-1-yl)-2-propylsulfanyl-1,7-dihydropurin-6-one trifluoroacetate] | 115 |
| Cn1c(=O)n(CCc2ccccc2)c(=O)c2c1nc(N1CCNCC1)n2-c1ccccc1Cl [Example 377, 7-(2-Chlorophenyl)-3-methyl-1-(2-phenethyl)-8-(piperazin-1-yl)-3,7-dihydropurine-2,6-dione trifluoroacetate] | 8.77 |

Same assay, conditions: IC50 (nM), DPPIV 10 mU/mL; Gly-Pro-p-nitroanilide 0.33 mM; absorbance 405 nm

| Structure (SMILES) | IC50 [nM] |
| --- | --- |
| CC#CCn1c(N2CCNCC2)nc2c1c(=O)n(CCc1ccccc1)c(=O)n2CC(=O)OCC [Example 416, Ethyl[7-(2-butynyl)-2,6-dioxo-1-(2-phenethyl)-8-(piperazin-1-yl)-1,2,6,7-tetrahydropurin-3-yl]acetate hydrochloride] | 4.02 |
| O=c1c2c(cnn1CCc1ccccc1)nc(N1CCNCC1)n2Cc1ccccc1 [Example 311, 3-Benzyl-5-(2-phenylethyl)-2-(piperazin-1-yl)-3,5-dihydroimidazo[4,5-d]pyridazin-4-one trifluoroacetate] | 77.5 |
| CC#CCn1c(=O)c2c(nc(N3CCNCC3)n2CC#CC)n(C)c1=O [Example 358, 1,7-bis(2-Butynyl)-3-methyl-8-(piperazin-1-yl)-3,7-dihydropurine-2,6-dione trifluoroacetate] | 357 |
| C#CCNC(=O)Cn1c(=O)n(CCc2ccccc2)c(=O)c2c1nc(N1CCNCC1)n2CC#CC [Example 422, 2-[7-(2-Butynyl)-2,6-dioxo-1-(2-phenethyl)-8-(piperazin-1-yl)-1,2,6,7-tetrahydropurin-3-yl]-N-(2-propynyl) acetamide hydrochloride] | 0.472 |
| CC#CCn1c(N2CCNCC2)nc2c1c(=O)n(CCc1ccccc1)c(=O)n2CC(=O)Nc1ccccc1 [Example 421, 2-[7-(2-Butynyl)-2,6-dioxo-1-(2-phenethyl)-8-(piperazin-1-yl)-1,2,6,7-tetrahydropurin-3-yl]-N-phenylacetamide hydrochloride] | 3.37 |
| CC#CCn1c(N2CCNCC2)nc2c1c(=O)n(CCc1ccccc1)c(=O)n2C [Example 367, 7-(2-Butynyl)-3-methyl-1-(2-phenylethyl)-8-(piperazin-1-yl)-3,7-dihydropurine-2,6-dione trifluoroacetate] | 4.56 |
| CC#CCn1c(N2CCNCC2)nc2c1c(=O)n(CCc1ccccc1)c(=O)n2CC(=O)N1CCCC1 [Example 418, 7-(2-Butynyl)-3-[2-oxo-2-(pyrrolidin-1-yl)ethyl]-1-(2-phenethyl)-8-(piperazin-1-yl)-3,7-dihydro purine-2,6-dione hydrochloride] | 1.14 |
| CC#CCn1c(N2CCNCC2)nc2c1c(=O)n(CCc1ccccc1)c(=O)n2CC(=O)NC [Example 419, 2-[7-(2-Butynyl)-2,6-dioxo-1-(2-phenethyl)-8-(piperazin-1-yl)-1,2,6,7-tetrahydropurin-3-yl]-N-methylacetamide hydrochloride] | 1.55 |
| C#CCn1c(=O)c2c(nc(N3CCNCC3)n2CC#CC)n(C)c1=O [Example 357, 7-(2-Butynyl)-3-methyl-8-(piperazin-1-yl)-1-(2-propynyl)-3,7-dihydropurine-2,6-dione trifluoroacetate] | 323 |
| CC#CCn1c(N2CCNCC2)nc2c1c(=O)n(CC#N)c(=O)n2C [Example 359, [7-(2-Butynyl)-3-methyl-2,6-dioxo-8-(piperazin-1-yl)-2,3,6,7-tetrahydropurin-1-yl]acetonitrile trifluoroacetate] | 353 |
| CC#CCn1c(N2CCNCC2)nc2c1c(=O)n(C)c(=O)n2CCC [Example 403, 7-(2-Butynyl)-3-propyl-1-methyl-8-(piperazin-1-yl)-3,7-dihydropurine-2,6-dione trifluoroacetate] | 266 |
| CC#CCn1c(N2CCNCC2)nc2c1c(=O)n(C)c(=O)n2CC [Example 396, 7-(2-Butynyl)-3-ethyl-1-methyl-8-(piperazin-1-yl)-3,7-dihydropurine-2,6-dione trifluoroacetate] | 197 |
| CC#CCn1c(N2CCNCC2)nc2c1c(=O)n(CCc1ccccc1)c(=O)n2CC(=O)NC1CC1 [Example 420, 2-[7-(2-Butynyl)-2,6-dioxo-1-(2-phenethyl)-8-(piperazin-1-yl)-1,2,6,7-tetrahydropurin-3-yl]-N-cyclopropyl acetamide hydrochloride] | 1.7 |

— US20060094722A1 (Eisai Co., Ltd., priority 2002, published 2006)
